From patent US10421784B2, “Cell penetrating peptides for intracellular delivery of molecules” (AADIGEN, LLC, priority 2012, dated 2019) come the findings set out here.

Data set [1] deals with SKB3-HEK2 xenografted mice. Description: Survival after intravenous NANOPEP-9/doxorubicin. In kind it is in vivo. Particulars: free Doxo (20 mg/Kg), intravenous every 4 days. Here is the method:
NANOPEP-9 peptides (VEPEP-9a, b, d, f variants) have been used for the delivery of doxorubicin in vivo. The potential of NANOPEP-9 to deliver doxorubicin in vivo was evaluated on SKB3-HEK2 xenografted mice. Doxorubicin was complexed with VEPEP-9 peptide at a molar ratio of 1/20 with NANOPEP-9a, NANOPEP-9f and NANOPEP-9a-PEG. The treatment was started 10 days after tumor inoculation and with 2 mg/kg and 10 mg/Kg doses of drug and injected every 4 days by systemic Intravenous administration and mice were monitored for survival (FIG. 15).

Another data set deals with SKB3. Description: Inhibition of cancer cell proliferation by delivered drugs. As to conditions: drug complexed with VEPEP-9f at molar ratio 1/20, read-out: VEPEP-9f IC50. Format: cell-based.
The test system of data set [2] is MCF7. Described as above. Format: cell-based. Particulars: Homo sapiens.
Data set [3] concerns non-transformed HS68 fibroblasts. Description: Cell proliferation after VEPEP-9 mediated delivery. In kind it is cell-based, Human. As for the experimental part: (§1) Adherent HS68 fibroblasts, HeLa, PC3, MCF-7, SCK3-Her2, PBMC cell lines (from American Type Culture Collection (ATCC)) were cultured in Dulbecco's Modified Eagle's Medium supplemented with 2 mM glutamine, 1% antibiotics (streptomycin 10,000 μg/ml, penicillin, 10,000 IU/ml) and 10% (w/v) foetal calf serum (FCS), at 37° C. in a humidified atmosphere containing 5% CO2. Stock solutions of VEPEP-9/peptide particles were prepared by complexing 1 μM peptide with VEPEP-9 peptides at a molar ratio of 1/20 for 30 min at 37° C. Lower concentrations of VEPEP-9-carrier/peptide (from 500 nM to 1 μM) were obtained by serial dilution of the stock complexes in PBS, in order to preserve the same VEPEP-9-carrier/peptide ratio. Stock solutions of VEPEP-9/siRNA particles were prepared by complexing 100 nM siRNA with VEPEP-9 peptides at a molar ratio of 1/20 for 30 min at 37° C. Lower concentrations of VEPEP-9/siRNA (from 20 nM to 0.125 nM) were obtained by serial dilution of the stock complexes in PBS, in order to preserve the same VEPEP-9/siRNA ratio. […] For cdk2 derived peptides, cell proliferation was monitored after 24 and 48 hrs. For siRNA targeting Cyclin B1, Cyclin B1 mRNA level was determined 24 hrs following transduction, using Quantigen (Pommies Inc.). […]

Data set [4] concerns PC3, A549, or SCK-3-HEK2-xenografted mice. Description: Tumour growth and cyclin B1 mRNA, siRNA controls. In kind it is in vivo. As for the experimental part:
(§2) For siRNA treatment: Two to three weeks after tumour implant, when tumour size reached about 100 mm^3, animals were treated by intratumoral or intravenous injection, every 3 days, with a solution of 0.1 ml of either free Cyc-B1 siRNA (50 or 100 μg), control siRNA Cyc-B3 or Cyc-B1 siRNA (1, 5, 10 μg) complexed with NANOPEP-9 at a 1/20 molar ratio.
Athymic female nude mice (6-8 weeks of age) were subcutaneously inoculated into the flank with 1×10^6 PC3 (prostate cancer), A549 (lung cancer) or SCK-3-HEK2 (ovarian cancer) cells in 100 μl PBS. Two to three weeks after tumour implant, when tumour size reached about 100 mm^3, animals were treated by intratumoral or intravenous injection, every 3 days, with a solution of 0.1 ml of either free Cyc-B1 siRNA (50 or 100 μg), control siRNA Cyc-B3 or Cyc-B1 siRNA (5, 10 μg) complexed with NANOPEP-9b or NANOPEP-9e particles. The “core” shell of the particles was formed using VEVEP-9b or VEPEP-9e peptide at a molar ratio of 20/1 with a siRNA targeting cycline B1. siRNA stock solutions are in 50 mM Tris, 0.5 mM EDTA buffer or in RNase free water. VEPEP-9 peptides were solubilised in water and stock solution of peptide was sonicated for 10 min in a water bath before complex formation. Then VEPEP-9/siRNA complexes were formed by adding siRNA into the peptide solution and incubating at 37° C. for 20-30 minutes to allow the carrier peptide/siRNA complexes to form. NANOPEP-9 particles contain a VEPEP-9/siRNA “core shell” surrounded by additional VEPEP-9 at a 1/20 molar ratio.
The potential of NANOPEP-9b or NANOPEP-9e to deliver cyclin B1 siRNA in vivo was evaluated on PC3, A549, or SCK-3-HEK2-xenografted mice (FIGS. 13A-13B). The effect of local intratumoral administration of NANOPEP-9/siRNA particles (molar ratio 20/1) on the growth of established subcutaneous tumours was evaluated. At day 50, tumor sizes in the control cohort, injected with PBS increased by about 3 to 5 fold. […] At day 48, it was validated that the Cyc-B1 siRNA mediated inhibition of tumour growth was directly associated with a decrease in the level of cyclin B1 mRNA.

Data set [5] has as its system Hela. As to conditions: read-out: IC50, block of proliferation, siRNA delivered with VEPEP-9b and VEPEP-9e.
Description: (§3) Adherent HS68 fibroblasts, HeLa, PC3, MCF-7, SCK3-Her2, PBMC cell lines (from American Type Culture Collection (ATCC)) were cultured in Dulbecco's Modified Eagle's Medium supplemented with 2 mM glutamine, 1% antibiotics (streptomycin 10,000 μg/ml, penicillin, 10,000 IU/ml) and 10% (w/v) foetal calf serum (FCS), at 37° C. in a humidified atmosphere containing 5% CO2. […] Stock solutions of VEPEP-9/siRNA particles were prepared by complexing 100 nM siRNA with VEPEP-9 peptides at a molar ratio of 1/20 for 30 min at 37° C. Lower concentrations of VEPEP-9/siRNA (from 20 nM to 0.125 nM) were obtained by serial dilution of the stock complexes in PBS, in order to preserve the same VEPEP-9/siRNA ratio. 150,000 cells seeded in a 35 mm dish the day prior transfection, were grown to 60% confluence and overlaid with 200 μl of preformed complexes, incubated for 3-5 min, then 400 μl of DMEM were added. After 30 min. incubation at 37° C., 1 ml of fresh DMEM containing 16% foetal calf serum (FCS) was added in order to reach a final FCS concentration of 10%, without removing the overlay of VEPEP-9/cargo complexes. Cells were returned to the incubator for 24 hrs. For cdk2 derived peptides, cell proliferation was monitored after 24 and 48 hrs. For siRNA targeting Cyclin B1, Cyclin B1 mRNA level was determined 24 hrs following transduction, using Quantigen (Pommies Inc.). […]
The next data set relates to HEK-2. The data set is described as follows: G2 arrest (accumulation of cells with 4 N content). In kind it is cell-based. As to conditions: Cyclin B1 siRNA delivered with VEPEP-9.
Data set [6] has as its system Hela. Particulars: read-out: IC50, accumulation of cells with a 4 N content (G2 arrest), Cyclin B1 siRNA delivered with VEPEP-9.
The next data set deals with cultured cells. Description: Cell cycle progression / cyclin B1 levels in cultured cells. As to conditions: VEPEP-9 mediated delivery. In kind it is cell-based.
The subject of data set [7] is Hela, MCF7, HEK-2 and U2OS cells. The data set is described as follows: Cell proliferation after VEPEP-9 mediated delivery. In kind it is cell-based. As for the experimental part: as §1
For data set [8], the system named is MCF7. Particulars: read-out: IC50, block of proliferation, siRNA delivered with VEPEP-9b and VEPEP-9e.
Description: as §3
For a further data set, the system named is PC3 tumor. Description: Tumour size, intravenous Cyc B1 siRNA in NANOPEP-9. In kind it is in vivo, mice. As to conditions: intravenous every three days, day 50. Here is the method: as §2
Athymic female nude mice (6-8 weeks of age) were subcutaneously inoculated into the flank with 1×10^6 PC3 (prostate cancer), A549 (lung cancer) or SCK-3-HEK2 (ovarian cancer) cells in 100 μl PBS. Two to three weeks after tumour implant, when tumour size reached about 100 mm^3, animals were treated by intratumoral or intravenous injection, every 3 days, with a solution of 0.1 ml of either free Cyc-B1 siRNA (50 or 100 μg), control siRNA Cyc-B3 or Cyc-B1 siRNA (5, 10 μg) complexed with NANOPEP-9b or NANOPEP-9e particles. The “core” shell of the particles was formed using VEVEP-9b or VEPEP-9e peptide at a molar ratio of 20/1 with a siRNA targeting cycline B1. siRNA stock solutions are in 50 mM Tris, 0.5 mM EDTA buffer or in RNase free water. VEPEP-9 peptides were solubilised in water and stock solution of peptide was sonicated for 10 min in a water bath before complex formation. […]

Data set [9] has as its system MCF7. Particulars: read-out: IC50, accumulation of cells with a 4 N content (G2 arrest), Cyclin B1 siRNA delivered with VEPEP-9.
For another data set, the system named is HT29 tumor. Description: Tumour size, intravenous Cyc B1 siRNA in NANOPEP-9. In kind it is in vivo, mice. As to conditions: intravenous every three days, day 50. Here is the method: NANOPEP-9b and NANOPEP-9e particles were used for systemic intravenous administration. Five micrograms (0.25 mg/kg) and 10 μg (0.5 mg/kg) of Cyc B1 siRNA in NANOPEP-9b and NANOPEP-9e particles were injected intravenously every three days into mice bearing xenografted tumors.

Where two headings read alike, the source gives them in different places.

For the compound `COc1cccc2c1C(=O)c1c(O)c3c(c(O)c1C2=O)C[C@@](O)(C(=O)CO)C[C@@H]3O[C@H]1C[C@H](N)[C@H](O)[C@H](C)O1` [Doxo, doxorubicin], in [1], the survival time is reported as 16 days. The IC50 in the data set on SKB3 worked out at 600 nM; in the data set with MCF7 [2] (drug complexed with VEPEP-9a at molar ratio 1/20, read-out: VEPEP-9a IC50), 100 nM; in the data set on MCF7 [2] (drug complexed with VEPEP-9f at molar ratio 1/20, read-out: VEPEP-9f IC50), 700 nM; in the data set with MCF7 [2] (drug complexed with VEPEP-9d at molar ratio 1/20, read-out: VEPEP-9d IC50) it was 170 nM.

The compound “siRNA: siRNA targeting Cyclin B1; sense 5′GGCGAAGAUCAACAUGGCATT3′, antisense 5′UGCCAUGUUGAUCUUCGCCTT3′ (chemistry not given here)” yielded a reduction of proliferation in [3] of 10%. Moreover, the “effect on tumour growth” value in data set [4] (100 μg naked siRNA (intratumoral or intravenous) or carrier alone) is recorded as “no significant effect”. For the same compound, the “level of cyclin B1 mRNA in tumour” value in data set [4] (day 48) is recorded as “decrease”. Besides, the IC50 in the data set on Hela [5] was found to be 3.1 ± 0.2 nM; with HEK-2 it was 1.2 ± 0.6 nM; in the data set on Hela [6], 2.4 ± 0.8 nM; in the data set with MCF7 [8] it was 1.6 ± 0.5 nM; with MCF7 [9], 1.9 ± 0.9 nM. Besides, the “concentration at which 4 N accumulation was optimally obtained” value with cultured cells was found to be 20 nM. Further, in data set [7], the “concentration sufficient to block proliferation” value is 20 nM. For the same compound, the “inhibition (reduction in tumor size)” value was found to be 65% with PC3 tumor (5 μg siRNA in NANOPEP-9b and NANOPEP-9e particles); 90% in the data set on PC3 tumor (10 μg siRNA in NANOPEP-9b and NANOPEP-9e particles); 35% with HT29 tumor (5 μg siRNA); 70% with HT29 tumor (10 μg siRNA).
